Experimental data taken from the Kinase Knowledgebase extract (Sharma et al. 2016).
pIC50: −log10 of the molar value.

Columns and labels:
PIK3CA (human) = PIK3CA (human) (UniProt P42336); assay: Enzyme Assay
PIK3CB (Human) = PIK3CB (Human) (UniProt P42338); assay: Enzyme Assay
PIK3CG (human) = PIK3CG (human) (UniProt P48736); assay: Enzyme Assay
PIK3CD (Human) [1] = target: PIK3CD (Human) (UniProt O00329); assay: Cell-Based Assay; conditions: raji
PIK3CD (Human) [2] = target: PIK3CD (Human) (UniProt O00329); assay: Enzyme Assay

Chain of PIK3CB (Human) (P42338 whole entry, looked up): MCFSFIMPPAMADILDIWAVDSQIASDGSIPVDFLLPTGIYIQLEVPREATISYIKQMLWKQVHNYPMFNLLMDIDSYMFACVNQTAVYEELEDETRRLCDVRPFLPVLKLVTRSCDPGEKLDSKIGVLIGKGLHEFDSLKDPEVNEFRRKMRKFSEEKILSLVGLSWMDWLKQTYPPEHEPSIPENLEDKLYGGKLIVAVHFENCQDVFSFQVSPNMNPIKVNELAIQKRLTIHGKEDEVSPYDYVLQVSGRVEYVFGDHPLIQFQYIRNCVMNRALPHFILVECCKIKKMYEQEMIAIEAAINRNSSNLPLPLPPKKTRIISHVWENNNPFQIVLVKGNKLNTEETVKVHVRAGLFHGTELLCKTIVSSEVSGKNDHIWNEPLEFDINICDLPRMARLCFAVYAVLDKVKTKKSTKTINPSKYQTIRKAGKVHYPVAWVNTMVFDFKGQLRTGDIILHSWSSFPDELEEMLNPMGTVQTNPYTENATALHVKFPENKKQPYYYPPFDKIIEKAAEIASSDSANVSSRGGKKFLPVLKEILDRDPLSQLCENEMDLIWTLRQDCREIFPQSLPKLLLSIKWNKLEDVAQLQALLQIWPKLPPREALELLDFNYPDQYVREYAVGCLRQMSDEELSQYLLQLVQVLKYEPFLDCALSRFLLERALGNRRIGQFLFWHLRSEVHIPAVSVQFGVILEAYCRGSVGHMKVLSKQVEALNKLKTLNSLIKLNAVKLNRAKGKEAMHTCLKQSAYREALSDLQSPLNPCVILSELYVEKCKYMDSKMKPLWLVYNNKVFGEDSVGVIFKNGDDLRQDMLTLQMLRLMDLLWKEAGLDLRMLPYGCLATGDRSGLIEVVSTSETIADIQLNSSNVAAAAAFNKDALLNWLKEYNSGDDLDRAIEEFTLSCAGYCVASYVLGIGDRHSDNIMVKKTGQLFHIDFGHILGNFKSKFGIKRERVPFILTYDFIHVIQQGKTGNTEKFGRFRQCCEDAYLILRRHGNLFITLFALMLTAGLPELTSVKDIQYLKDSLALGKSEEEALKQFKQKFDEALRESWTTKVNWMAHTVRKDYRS
Chain of PIK3CG (human) (P48736 whole entry, looked up): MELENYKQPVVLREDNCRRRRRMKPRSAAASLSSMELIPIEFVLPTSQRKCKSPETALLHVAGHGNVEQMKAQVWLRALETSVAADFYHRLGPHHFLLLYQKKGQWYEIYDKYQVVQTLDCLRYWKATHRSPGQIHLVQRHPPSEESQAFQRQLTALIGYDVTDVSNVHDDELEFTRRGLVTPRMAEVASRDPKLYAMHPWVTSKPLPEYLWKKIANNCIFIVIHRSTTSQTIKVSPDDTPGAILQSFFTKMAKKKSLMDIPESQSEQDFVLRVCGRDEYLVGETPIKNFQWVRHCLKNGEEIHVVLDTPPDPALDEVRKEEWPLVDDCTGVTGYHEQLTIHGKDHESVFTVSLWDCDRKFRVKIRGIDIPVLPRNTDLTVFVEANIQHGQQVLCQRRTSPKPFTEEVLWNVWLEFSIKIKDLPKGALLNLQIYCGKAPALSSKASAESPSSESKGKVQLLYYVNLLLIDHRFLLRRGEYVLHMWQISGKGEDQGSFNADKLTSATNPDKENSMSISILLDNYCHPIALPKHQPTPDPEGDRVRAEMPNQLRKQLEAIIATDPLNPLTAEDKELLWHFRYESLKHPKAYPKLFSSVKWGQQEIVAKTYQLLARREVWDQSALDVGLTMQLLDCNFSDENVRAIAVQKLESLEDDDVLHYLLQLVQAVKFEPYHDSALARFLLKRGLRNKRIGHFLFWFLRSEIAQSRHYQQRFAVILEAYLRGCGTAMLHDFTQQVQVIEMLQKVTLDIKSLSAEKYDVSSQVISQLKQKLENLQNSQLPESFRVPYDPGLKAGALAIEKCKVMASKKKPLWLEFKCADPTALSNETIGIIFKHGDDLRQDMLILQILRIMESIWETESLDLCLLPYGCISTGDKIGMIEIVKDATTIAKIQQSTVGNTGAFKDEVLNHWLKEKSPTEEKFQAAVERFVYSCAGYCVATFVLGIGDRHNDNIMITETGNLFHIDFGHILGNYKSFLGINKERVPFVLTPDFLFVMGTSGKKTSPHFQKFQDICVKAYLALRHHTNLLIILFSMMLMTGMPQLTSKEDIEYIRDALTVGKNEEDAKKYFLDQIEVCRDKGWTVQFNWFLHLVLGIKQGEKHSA
Chain of PIK3CA (human) (P42336 whole entry, looked up): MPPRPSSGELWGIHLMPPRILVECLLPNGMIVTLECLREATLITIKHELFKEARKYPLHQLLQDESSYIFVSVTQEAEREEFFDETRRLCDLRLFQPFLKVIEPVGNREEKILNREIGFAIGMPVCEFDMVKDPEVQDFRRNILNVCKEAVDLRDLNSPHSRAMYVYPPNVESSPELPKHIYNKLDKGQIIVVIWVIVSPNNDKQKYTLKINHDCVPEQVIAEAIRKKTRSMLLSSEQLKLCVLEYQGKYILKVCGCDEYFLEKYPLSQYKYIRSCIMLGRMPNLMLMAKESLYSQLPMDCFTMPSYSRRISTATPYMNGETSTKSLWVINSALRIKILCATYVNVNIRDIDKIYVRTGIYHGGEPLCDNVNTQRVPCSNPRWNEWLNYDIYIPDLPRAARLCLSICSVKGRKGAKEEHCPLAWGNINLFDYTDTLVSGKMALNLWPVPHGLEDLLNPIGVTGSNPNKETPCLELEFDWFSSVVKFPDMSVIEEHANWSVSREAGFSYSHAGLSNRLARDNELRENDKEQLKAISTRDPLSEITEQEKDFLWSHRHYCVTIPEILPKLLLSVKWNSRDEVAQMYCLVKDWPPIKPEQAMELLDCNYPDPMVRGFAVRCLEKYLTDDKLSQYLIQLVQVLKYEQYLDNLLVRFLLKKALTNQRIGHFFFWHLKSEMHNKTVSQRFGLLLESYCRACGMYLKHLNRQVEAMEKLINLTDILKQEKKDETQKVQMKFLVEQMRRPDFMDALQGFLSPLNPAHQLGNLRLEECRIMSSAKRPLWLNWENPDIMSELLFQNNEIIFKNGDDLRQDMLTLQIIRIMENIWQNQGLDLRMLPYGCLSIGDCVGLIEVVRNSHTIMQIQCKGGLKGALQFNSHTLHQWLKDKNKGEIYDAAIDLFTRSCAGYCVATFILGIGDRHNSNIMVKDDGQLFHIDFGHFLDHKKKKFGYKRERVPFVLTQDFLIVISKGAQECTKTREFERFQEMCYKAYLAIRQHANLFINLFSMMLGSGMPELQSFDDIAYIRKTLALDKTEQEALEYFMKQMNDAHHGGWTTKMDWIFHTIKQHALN
Chain of PIK3CD (Human) (O00329 whole entry, looked up): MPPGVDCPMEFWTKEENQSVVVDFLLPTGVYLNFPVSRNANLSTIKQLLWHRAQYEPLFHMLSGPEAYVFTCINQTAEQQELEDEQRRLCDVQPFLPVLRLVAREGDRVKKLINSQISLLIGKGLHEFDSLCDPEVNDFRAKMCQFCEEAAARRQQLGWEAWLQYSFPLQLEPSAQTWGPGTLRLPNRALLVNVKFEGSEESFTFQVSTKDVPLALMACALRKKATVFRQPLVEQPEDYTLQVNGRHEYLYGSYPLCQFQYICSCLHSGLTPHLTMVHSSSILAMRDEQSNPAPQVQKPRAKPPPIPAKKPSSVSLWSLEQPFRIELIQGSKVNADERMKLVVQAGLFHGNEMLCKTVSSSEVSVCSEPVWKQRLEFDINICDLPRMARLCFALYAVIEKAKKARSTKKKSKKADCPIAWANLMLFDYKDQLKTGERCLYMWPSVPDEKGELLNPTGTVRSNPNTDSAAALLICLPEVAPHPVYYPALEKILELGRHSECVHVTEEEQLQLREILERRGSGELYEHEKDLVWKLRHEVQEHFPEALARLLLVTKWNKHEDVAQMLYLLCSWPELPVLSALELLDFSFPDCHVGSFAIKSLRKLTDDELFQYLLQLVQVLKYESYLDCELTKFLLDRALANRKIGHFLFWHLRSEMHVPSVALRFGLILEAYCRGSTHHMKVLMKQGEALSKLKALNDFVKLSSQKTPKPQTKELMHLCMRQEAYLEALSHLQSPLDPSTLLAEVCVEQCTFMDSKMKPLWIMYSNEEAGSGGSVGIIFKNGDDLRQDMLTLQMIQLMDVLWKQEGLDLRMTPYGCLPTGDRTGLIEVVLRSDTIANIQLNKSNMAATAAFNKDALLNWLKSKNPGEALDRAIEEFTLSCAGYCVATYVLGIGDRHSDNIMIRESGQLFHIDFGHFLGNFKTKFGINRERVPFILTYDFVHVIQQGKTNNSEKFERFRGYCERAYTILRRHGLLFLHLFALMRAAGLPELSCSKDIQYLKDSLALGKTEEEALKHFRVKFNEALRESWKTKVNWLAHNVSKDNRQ

| SMILES | pIC50 (PIK3CA (human)) | pIC50 (PIK3CB (Human)) | pIC50 (PIK3CG (human)) | pIC50 (PIK3CD (Human) [1]) | pIC50 (PIK3CD (Human) [2]) |
| --- | --- | --- | --- | --- | --- |
| COc1cccc2c(C)c([C@H](C)NC(=O)c3c(N)nn4cccnc34)n(-c3ccccc3)c(=O)c12 | ≤ 5.00 | ≤ 5.00 | 6.00 to 7.00 |  |  |
| COc1cc(-c2cccc3cc([C@H](C)NC(=O)c4ncc(C)nc4N)n(-c4ccccc4)c(=O)c23)ccn1 | ≤ 5.00 | ≤ 5.00 |  | 6.00 to 7.00 |  |
| C[C@H](NC(=O)c1c(N)ncc2cccnc12)c1cc2cccc(N3CCOCC3)c2c(=O)n1-c1ccccc1 | ≤ 5.00 | ≤ 5.00 | 6.00 to 7.00 | > 7.00 |  |
| C[C@H](NC(=O)c1nc(-c2cccc(S(=O)(=O)NC3CC3)c2)cnc1N)c1cc2cccc(Cl)c2c(=O)n1-c1ccccc1 | ≤ 5.00 |  |  | > 7.00 |  |
| Nc1nccnc1C(=O)N1CCC[C@H]1c1cc2cccc(Cl)c2c(=O)n1-c1ccccc1 | ≤ 5.00 | ≤ 5.00 | ≤ 5.00 |  |  |
| C[C@H](NC(=O)c1cnc2cccnn12)c1cc2cccc(Cl)c2c(=O)n1-c1ccccc1 |  |  |  | 6.00 to 7.00 | 6.00 to 7.00 |
| C[C@H](NC(=O)c1cnn2cccnc12)c1cc2cccc(C#CCNC(=O)[C@@H]3CCCO3)c2c(=O)n1-c1ccccc1 | 6.00 to 7.00 | 6.00 to 7.00 | > 7.00 | > 7.00 |  |
| CC(C)Oc1ccc(-c2cnc(N)c(C(=O)N[C@@H](C)c3cc4cccc(Cl)c4c(=O)n3-c3ccccc3)n2)cn1 | ≤ 5.00 | ≤ 5.00 |  | 6.00 to 7.00 |  |
| C[C@H](NC(=O)c1cnn2cccnc12)c1cc2cccc(Cl)c2c(=O)n1-c1ccccc1 | ≤ 5.00 |  |  | 6.00 to 7.00 |  |
| CC(NC(=O)c1c(N)nn2cccnc12)c1cc2cccc(Cl)c2nc1-c1ccccc1 (stereo unspecified) | ≤ 5.00 |  |  | > 7.00 |  |
| CC(C)c1ccn2nc(N)c(C(=O)N[C@@H](C)c3cc4cccc(Cl)c4c(=O)n3-c3ccccc3)c2n1 | ≤ 5.00 |  |  | 6.00 to 7.00 |  |
| Cc1ccn2ncc(C(=O)N[C@@H](C)c3cc4cccc(Cl)c4c(=O)n3-c3ccccc3)c2n1 | ≤ 5.00 |  |  | 6.00 to 7.00 |  |
| C[C@H](NC(=O)c1c(N)nn2cccnc12)c1cc2cccc(C#CCNC(=O)C3CC(=O)CC(=O)C3)c2c(=O)n1-c1ccccc1 |  |  | > 7.00 |  | 6.00 to 7.00 |
| Cc1cnc(C(=O)N[C@@H](C)c2c(Br)c3cccc(Cl)c3c(=O)n2-c2ccccc2)c(N)n1 | ≤ 5.00 | ≤ 5.00 |  |  |  |
| CC(C)Oc1cc(-c2cccc3cc([C@H](C)NC(=O)c4c(N)nn5cccnc45)n(-c4ccccc4)c(=O)c23)ccn1 | ≤ 5.00 |  | 6.00 to 7.00 | > 7.00 |  |
| Cc1cnc(N)c(C(=O)N[C@@H](C)c2cc3cccc(Cl)c3c(=O)n2-c2ccccc2)n1 | ≤ 5.00 |  |  | 6.00 to 7.00 |  |
| COc1ccc(-c2cnc(N)c(C(=O)N[C@@H](C)c3cc4cccc(Cl)c4c(=O)n3-c3ccccc3)n2)cc1NS(C)(=O)=O | 6.00 to 7.00 | 6.00 to 7.00 | > 7.00 | > 7.00 |  |
| COc1cccc2c(Br)c([C@H](C)NC(=O)c3c(N)nn4cccnc34)n(-c3ccccc3)c(=O)c12 | ≤ 5.00 | ≤ 5.00 | 6.00 to 7.00 |  |  |
| CC(C)Oc1cc(-c2cccc3nc([C@H](C)NC(=O)c4c(N)nn5cccnc45)n(-c4ccccc4)c(=O)c23)ccn1 | ≤ 5.00 |  |  | > 7.00 |  |
| COc1ccc(-c2cnc(N)c(C(=O)N[C@@H](C)c3cc4cccc(Cl)c4c(=O)n3-c3ccccc3)n2)cc1F | ≤ 5.00 | ≤ 5.00 |  |  |  |
| C[C@H](NC(=O)c1nc(-c2cccc(S(=O)(=O)N3CCCC3)c2)cnc1N)c1cc2cccc(Cl)c2c(=O)n1-c1ccccc1 | ≤ 5.00 |  |  |  |  |
| C[C@H](NC(=O)c1nc(-c2cccc(S(=O)(=O)N(C)C)c2)cnc1N)c1cc2cccc(Cl)c2c(=O)n1-c1ccccc1 | ≤ 5.00 |  |  | 6.00 to 7.00 |  |
| C[C@H](NC(=O)c1nccnc1N)c1cc2cccc(-c3cnn(C)c3)c2c(=O)n1-c1ccccc1 | ≤ 5.00 | ≤ 5.00 | 6.00 to 7.00 | > 7.00 |  |
| C[C@H](NC(=O)c1c(N)oc2cccnc12)c1cc2cccc(Cl)c2c(=O)n1-c1ccccc1 | ≤ 5.00 |  |  |  |  |
| C[C@H](NC(=O)c1nc(-c2cnn(C)c2)cnc1N)c1cc2cccc(Cl)c2c(=O)n1-c1ccccc1 |  |  |  | 6.00 to 7.00 | ≤ 5.00 |

Now from value to compound:

| pIC50 (PIK3CA (human)) | pIC50 (PIK3CB (Human)) | pIC50 (PIK3CG (human)) | pIC50 (PIK3CD (Human) [1]) | pIC50 (PIK3CD (Human) [2]) | SMILES |
| --- | --- | --- | --- | --- | --- |
| ≤ 5.00 |  | 6.00 to 7.00 | > 7.00 |  | C[C@H](NC(=O)c1c(N)nn2cccnc12)c1cc2cccc(C#N)c2c(=O)n1-c1ccccc1 |
| ≤ 5.00 | ≤ 5.00 |  | 6.00 to 7.00 |  | C[C@H](NC(=O)c1c(N)nn2cccnc12)c1cc2cccc(C3CC3)c2c(=O)n1-c1ccccc1 |
| 6.00 to 7.00 |  | > 7.00 | > 7.00 |  | C[C@H](NC(=O)c1c(N)nn2cccnc12)c1cc2cccc(C#CCNC(=O)C3CCC(=O)C3)c2c(=O)n1-c1ccccc1 (stereo partly specified) |
| ≤ 5.00 |  |  | 6.00 to 7.00 |  | C[C@H](NC(=O)c1c(N)nn2cccnc12)c1cc2sccc2c(=O)n1-c1ccccc1 |
| ≤ 5.00 | ≤ 5.00 | 6.00 to 7.00 |  |  | COc1ncc(-c2cccc3cc([C@H](C)NC(=O)c4c(N)nn5cccnc45)n(-c4ccccc4)c(=O)c23)s1 |
| ≤ 5.00 | ≤ 5.00 | 6.00 to 7.00 |  |  | C[C@H](NC(=O)c1c(N)nn2cccnc12)c1cc2cccc(/C=N\O)c2c(=O)n1-c1ccccc1 |
| ≤ 5.00 | ≤ 5.00 | 6.00 to 7.00 | > 7.00 |  | COc1ccc(-c2cccc3cc([C@H](C)NC(=O)c4c(N)nn5cccnc45)n(-c4ccccc4)c(=O)c23)cn1 |
| ≤ 5.00 |  |  | 6.00 to 7.00 |  | C[C@H](NC(=O)c1c(N)nn2cccnc12)c1cc2cccc(C=O)c2c(=O)n1-c1ccccc1 |
| ≤ 5.00 |  | 6.00 to 7.00 | > 7.00 |  | C[C@H](NC(=O)c1c(N)nn2cccnc12)c1cc2cccc(C(F)(F)F)c2c(=O)n1-c1ccccc1 |
| ≤ 5.00 | ≤ 5.00 |  | 6.00 to 7.00 |  | COc1cccc2cc([C@H](C)NC(=O)c3c(N)nn4cccnc34)n(-c3ccccc3)c(=O)c12 |
| ≤ 5.00 | ≤ 5.00 |  |  |  | C[C@H](NC(=O)c1c(N)nn2cccnc12)c1cc2cccc(OC(F)(F)F)c2c(=O)n1-c1ccccc1 |
| ≤ 5.00 | ≤ 5.00 | ≤ 5.00 |  |  | CNCc1cccc2cc([C@H](C)NC(=O)c3c(N)nn4cccnc34)n(-c3ccccc3)c(=O)c12 |
| ≤ 5.00 | ≤ 5.00 | 6.00 to 7.00 | > 7.00 |  | C[C@H](NC(=O)c1c(N)nn2cccnc12)c1cc2cccc(-c3cnn(C)c3)c2c(=O)n1-c1ccccc1 |
| ≤ 5.00 |  | 6.00 to 7.00 | 6.00 to 7.00 |  | C[C@H](NC(=O)c1c(N)nn2cccnc12)c1cc2cccc(CO)c2c(=O)n1-c1ccccc1 |
| 6.00 to 7.00 |  | 6.00 to 7.00 | > 7.00 |  | C[C@H](NC(=O)c1c(N)nn2cccnc12)c1cc2cccc(C#CCNC(=O)c3ccc(C#N)o3)c2c(=O)n1-c1ccccc1 |
| ≤ 5.00 |  | 6.00 to 7.00 | 6.00 to 7.00 |  | C[C@H](NC(=O)c1c(N)nn2cccnc12)c1cc2ccccc2c(=O)n1-c1ccccc1 |
|  | ≤ 5.00 | 6.00 to 7.00 | > 7.00 |  | C[C@H](NC(=O)c1c(N)nn2cccnc12)c1cc2cccc(C#CCCNC(=O)[C@@H]3CCC(=O)O3)c2c(=O)n1-c1ccccc1 |
| ≤ 5.00 | ≤ 5.00 |  |  |  | C[C@H](NC(=O)c1c(N)nn2cccnc12)c1cc2cccc(CNC[C@@H]3CCCO3)c2c(=O)n1-c1ccccc1 |
| ≤ 5.00 |  |  | 6.00 to 7.00 |  | C[C@H](NC(=O)c1c(N)nn2cccnc12)c1cc2ccsc2c(=O)n1-c1ccccc1 |
